Source: PubChem BioAssay (NCI)
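In this assay, cells in 96-well plates receive the compound at five concentrations for 48 hours. Endpoints are linearly interpolated between the surrounding concentrations. The concentration for full growth arrest is given as TGI.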

Tests used:
Assay in all cases: DTP human tumour cell line panel, 48 h
[1] = tested on: UACC-62 melanoma
[2] = tested on: HOP-92 NSCLC
[3] = tested on: RPMI-8226 leukemia
[4] = tested on: OVCAR-8 ovarian
[5] = tested on: M19-MEL melanoma
[6] = tested on: KM12 colon
[7] = tested on: OVCAR-4 ovarian
[8] = tested on: SK-OV-3 ovarian
[9] = tested on: 786-0 renal
[10] = tested on: HL-60(TB) leukemia
[11] = tested on: ACHN renal
[12] = tested on: HOP-62 NSCLC
[13] = tested on: HOP-18 NSCLC
[14] = tested on: DMS 114 small cell lung
[15] = tested on: RXF 393 renal
[16] = tested on: SK-MEL-5 melanoma
[17] = tested on: NCI-H522 lung
[18] = tested on: CAKI-1 renal
[19] = tested on: A498 renal
[20] = tested on: U251 CNS
[21] = tested on: SNB-78 CNS
[22] = tested on: XF 498 CNS
[23] = tested on: A549 NSCLC
[24] = tested on: UACC-257 melanoma
[25] = tested on: HT29 colon
[26] = tested on: HCT-116 colon
[27] = tested on: HCC-2998 colon
[28] = tested on: EKVX NSCLC
[29] = tested on: SK-MEL-2 melanoma
[30] = tested on: TK-10 renal
[31] = tested on: DMS 273 small cell lung
[32] = tested on: HCT-15 colon
[33] = tested on: MALME-3M melanoma
[34] = tested on: SR leukemia
[35] = tested on: SF-539 CNS
[36] = tested on: SF-295 CNS
[37] = tested on: K-562 leukemia
[38] = tested on: IGROV1 ovarian
[39] = tested on: NCI-H460 lung
[40] = tested on: M14 melanoma
[41] = tested on: UO-31 renal
[42] = tested on: CCRF-CEM leukemia
[43] = tested on: COLO 205 colon
[44] = tested on: OVCAR-5 ovarian
[45] = tested on: SK-MEL-28 melanoma
[46] = tested on: SNB-19 CNS
[47] = tested on: NCI-H226 lung
[48] = tested on: DLD-1 colon
[49] = tested on: SN12C renal
[50] = tested on: LXFL 529 NSCLC
[51] = tested on: SNB-75 CNS
[52] = tested on: SF-268 CNS
[53] = tested on: MOLT-4 leukemia
[54] = tested on: KM20L2 colon
[55] = tested on: NCI-H23 lung
[56] = tested on: LOX IMVI melanoma
[57] = tested on: SW-620 colon
[58] = tested on: RXF-631 renal
[59] = tested on: OVCAR-3 ovarian

COC(=O)[C@@]12OC[C@]34C([C@@H](O)C1O)[C@@]1(C)CC(=O)C(OC(=O)/C=C(/c5ccccc5)C(F)(F)F)=C(C)C1C[C@H]3OC(=O)[C@H](O)[C@H]42 (some centres not stated)
TGI [1]: 11.7 µM | TGI [2]: 43.7 µM | TGI [3]: 13.9 µM | TGI [4]: > 50 µM | TGI [5]: > 50 µM | TGI [6]: > 50 µM | TGI [7]: > 50 µM | TGI [8]: > 50 µM | TGI [9]: > 50 µM | TGI [10]: 2.97 µM | TGI [11]: > 50 µM | TGI [12]: 46.1 µM | TGI [13]: > 50 µM | TGI [14]: 22.3 µM | TGI [15]: 45.6 µM | TGI [16]: 31.4 µM | TGI [17]: 24.5 µM | TGI [18]: > 50 µM | TGI [19]: 2.26 µM | TGI [20]: > 50 µM | TGI [21]: > 50 µM | TGI [22]: 33 µM | TGI [23]: > 50 µM | TGI [24]: > 50 µM | TGI [25]: 46.3 µM | TGI [26]: > 50 µM | TGI [27]: 22.3 µM | TGI [28]: > 50 µM | TGI [29]: 27.4 µM | TGI [30]: > 50 µM | TGI [31]: 18 µM | TGI [32]: > 50 µM | TGI [33]: 28.9 µM | TGI [34]: 19.4 µM | TGI [35]: 13 µM | TGI [36]: 28.1 µM | TGI [37]: > 50 µM | TGI [38]: 21.2 µM | TGI [39]: 23 µM | TGI [40]: 36.9 µM | TGI [41]: > 50 µM | TGI [42]: > 50 µM | TGI [43]: 30.2 µM | TGI [44]: > 50 µM | TGI [45]: 27 µM | TGI [46]: 23.2 µM | TGI [47]: 29.5 µM | TGI [48]: 31.9 µM | TGI [49]: > 50 µM | TGI [50]: > 50 µM | TGI [51]: 31.3 µM | TGI [52]: > 50 µM | TGI [53]: 26.9 µM | TGI [54]: 36.6 µM | TGI [55]: 19.7 µM

CN(C)c1n/c(=N/c2ncn[nH]2)ss1
TGI [1]: > 100 µM | TGI [2]: > 100 µM | TGI [3]: > 100 µM | TGI [4]: > 100 µM | TGI [5]: > 100 µM | TGI [6]: > 100 µM | TGI [7]: > 100 µM | TGI [8]: > 100 µM | TGI [9]: > 100 µM | TGI [10]: > 100 µM | TGI [11]: > 100 µM | TGI [12]: > 100 µM | TGI [13]: > 100 µM | TGI [14]: > 100 µM | TGI [15]: > 100 µM | TGI [16]: > 100 µM | TGI [17]: > 100 µM | TGI [18]: > 100 µM | TGI [19]: > 100 µM | TGI [20]: > 100 µM | TGI [21]: > 100 µM | TGI [22]: > 100 µM | TGI [23]: > 100 µM | TGI [24]: > 100 µM | TGI [25]: > 100 µM | TGI [26]: > 100 µM | TGI [27]: > 100 µM | TGI [28]: > 100 µM | TGI [29]: > 100 µM | TGI [30]: > 100 µM | TGI [31]: > 100 µM | TGI [32]: > 100 µM | TGI [33]: > 100 µM | TGI [56]: > 100 µM | TGI [34]: > 100 µM | TGI [35]: > 100 µM | TGI [36]: > 100 µM | TGI [37]: > 100 µM | TGI [38]: > 100 µM | TGI [39]: > 100 µM | TGI [40]: > 100 µM | TGI [41]: > 100 µM | TGI [57]: > 100 µM | TGI [42]: > 100 µM | TGI [44]: > 100 µM | TGI [45]: > 100 µM | TGI [46]: > 100 µM | TGI [47]: > 100 µM | TGI [48]: > 100 µM | TGI [49]: > 100 µM | TGI [50]: > 100 µM | TGI [51]: > 100 µM | TGI [52]: > 100 µM | TGI [53]: > 100 µM | TGI [54]: > 100 µM | TGI [55]: > 100 µM

c1ccc(COCC2OC3c4ccccc4COC3C2OCc2ccccc2)cc1 (configuration not stated)
TGI [1]: > 100 µM | TGI [2]: 87.1 µM | TGI [3]: > 100 µM | TGI [4]: > 100 µM | TGI [5]: > 100 µM | TGI [6]: > 100 µM | TGI [7]: > 100 µM | TGI [8]: > 100 µM | TGI [9]: > 100 µM | TGI [11]: > 100 µM | TGI [13]: > 100 µM | TGI [14]: > 100 µM | TGI [15]: > 100 µM | TGI [16]: > 100 µM | TGI [18]: > 100 µM | TGI [58]: > 100 µM | TGI [20]: > 100 µM | TGI [21]: > 100 µM | TGI [23]: > 100 µM | TGI [24]: > 100 µM | TGI [25]: > 100 µM | TGI [26]: > 100 µM | TGI [27]: > 100 µM | TGI [28]: > 100 µM | TGI [29]: > 100 µM | TGI [30]: > 100 µM | TGI [31]: > 100 µM | TGI [32]: > 100 µM | TGI [33]: > 100 µM | TGI [59]: > 100 µM | TGI [34]: > 100 µM | TGI [35]: > 100 µM | TGI [36]: > 100 µM | TGI [37]: > 100 µM | TGI [38]: > 100 µM | TGI [39]: > 100 µM | TGI [40]: > 100 µM | TGI [41]: > 100 µM | TGI [57]: > 100 µM | TGI [43]: > 100 µM | TGI [44]: > 100 µM | TGI [45]: > 100 µM | TGI [46]: > 100 µM | TGI [47]: > 100 µM | TGI [48]: > 100 µM | TGI [49]: > 100 µM | TGI [51]: > 100 µM | TGI [53]: > 100 µM | TGI [54]: > 100 µM | TGI [55]: > 100 µM

COC(=O)c1ccc(Cc2ccc(C(=O)OC)o2)o1
TGI [1]: > 378 µM | TGI [2]: > 378 µM | TGI [3]: > 378 µM | TGI [4]: > 378 µM | TGI [5]: > 378 µM | TGI [6]: > 378 µM | TGI [8]: > 378 µM | TGI [9]: > 378 µM | TGI [10]: > 378 µM | TGI [11]: > 378 µM | TGI [12]: > 378 µM | TGI [13]: > 378 µM | TGI [15]: > 378 µM | TGI [16]: > 378 µM | TGI [17]: > 378 µM | TGI [18]: > 378 µM | TGI [58]: > 378 µM | TGI [20]: > 378 µM | TGI [23]: > 378 µM | TGI [24]: > 378 µM | TGI [25]: > 378 µM | TGI [26]: > 378 µM | TGI [27]: > 378 µM | TGI [28]: > 378 µM | TGI [29]: > 378 µM | TGI [30]: > 378 µM | TGI [31]: > 378 µM | TGI [32]: > 378 µM | TGI [33]: > 378 µM | TGI [56]: > 378 µM | TGI [59]: > 378 µM | TGI [34]: > 378 µM | TGI [35]: > 378 µM | TGI [36]: > 378 µM | TGI [37]: > 378 µM | TGI [38]: > 378 µM | TGI [39]: > 378 µM | TGI [57]: > 378 µM | TGI [42]: > 378 µM | TGI [43]: > 378 µM | TGI [44]: > 378 µM | TGI [45]: > 378 µM | TGI [46]: > 378 µM | TGI [47]: > 378 µM | TGI [48]: > 378 µM | TGI [49]: > 378 µM | TGI [50]: > 378 µM | TGI [52]: > 378 µM | TGI [53]: > 378 µM | TGI [54]: > 378 µM | TGI [55]: > 378 µM
